Results as given in ChEMBL document CHEMBL1201862, “PubChem BioAssay data set” (2004).
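Compound exposure: 48 hours, 5 concentrations, 96-well plates. At the GI50, growth is halved.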 Activity calls are given as the source filed them. Cut-off read from the data, not from the text of the source: active = GI50 up to about 1.1 µM and inactive = higher.

Columns and labels:
Assay in all cases: NCI-60 cell line screen, 48 h
A549 = tested on: A549
CAKI-1 = tested on: CAKI-1
EKVX = tested on: EKVX
HOP-92 = tested on: HOP-92
HT-29 = tested on: HT-29
KM-20L2 = tested on: KM-20L2
KM12 = tested on: KM12
MOLT-4 = tested on: MOLT-4
Malme-3M = tested on: Malme-3M
NCI-H23 = tested on: NCI-H23
SF-539 = tested on: SF-539
SK-MEL-28 = tested on: SK-MEL-28
SK-MEL-2 = tested on: SK-MEL-2
SN12C = tested on: SN12C
SNB-75 = tested on: SNB-75
HL-60 = tested on: HL-60
MDA-MB-231 = tested on: MDA-MB-231
MDA-N = tested on: MDA-N
SR = tested on: SR
T47D = tested on: T47D

Measured: GI50

Cc1cc(C)nc(NS(=O)(=O)c2ccc(Nc3c4ccccc4nc4c(C(=O)Nc5ccc(S(=O)(=O)N=C(N)N)cc5)cccc34)cc2)n1
inactive: A549 > 100 µM | CAKI-1 > 100 µM | EKVX > 100 µM | HOP-92 37.5 µM | HT-29 > 100 µM | KM-20L2 > 100 µM | KM12 > 100 µM | MOLT-4 > 100 µM | Malme-3M 78.7 µM | NCI-H23 > 100 µM | SF-539 > 100 µM | SK-MEL-28 67.3 µM | SK-MEL-2 > 100 µM | SN12C > 100 µM | SNB-75 27.2 µM

O=C(O)c1ccc(Nc2cnc3ccc(C(F)(F)F)cc3n2)cc1
inactive: A549 13.4 µM | CAKI-1 14.4 µM | EKVX 38.2 µM | HL-60 5.4 µM | HOP-92 15.5 µM | HT-29 17.1 µM | KM12 16.5 µM | MDA-MB-231 19.5 µM | MDA-N 17 µM | MOLT-4 19.9 µM | Malme-3M 32.4 µM | NCI-H23 17 µM | SF-539 23.9 µM | SK-MEL-28 34 µM | SK-MEL-2 13.2 µM | SN12C 25.5 µM | SNB-75 11.7 µM | SR 20.4 µM | T47D 6.07 µM

COC1(OC)N=C(N)C2(C#N)C3(C(=O)N(C(C)C)N=C3C)C12C#N (stereo unspecified)
inactive: A549 > 100 µM | CAKI-1 > 100 µM | EKVX > 100 µM | HL-60 > 100 µM | HOP-92 > 100 µM | HT-29 > 100 µM | KM12 > 100 µM | MDA-MB-231 > 100 µM | MDA-N > 100 µM | MOLT-4 > 100 µM | Malme-3M > 100 µM | NCI-H23 > 100 µM | SF-539 > 100 µM | SK-MEL-28 > 100 µM | SK-MEL-2 > 100 µM | SN12C > 100 µM | SNB-75 > 100 µM | SR > 100 µM | T47D > 100 µM

CCCCCCc1cc2cc(C(=O)NCc3ccccc3)c(=N)oc2cc1O
inactive: A549 > 100 µM | CAKI-1 > 100 µM | EKVX > 100 µM | HL-60 > 100 µM | HOP-92 > 100 µM | HT-29 > 100 µM | KM12 > 100 µM | MDA-MB-231 > 100 µM | MDA-N > 100 µM | MOLT-4 > 100 µM | Malme-3M > 100 µM | NCI-H23 > 100 µM | SF-539 > 100 µM | SK-MEL-28 > 100 µM | SK-MEL-2 > 100 µM | SN12C > 100 µM | SNB-75 > 100 µM | SR > 100 µM | T47D > 100 µM

O=C1OC(CCCN2CCCCC2)(c2ccccc2)CC12CCCC2 (stereo unspecified)
inactive: A549 > 100 µM | CAKI-1 > 100 µM | EKVX > 100 µM | HL-60 52.5 µM | HOP-92 2.1 µM | HT-29 37.3 µM | KM12 > 100 µM | MDA-MB-231 > 75.9 µM | MDA-N > 77.6 µM | MOLT-4 40 µM | Malme-3M 35.6 µM | NCI-H23 > 89.7 µM | SF-539 49.1 µM | SK-MEL-28 22.3 µM | SK-MEL-2 > 100 µM | SN12C > 100 µM | SNB-75 23 µM | SR 34.4 µM | T47D > 100 µM

CC(C)=NOC(=O)CNC(=O)C(Cc1ccccc1)NC(=O)C(C)NC(=O)OC(C)(C)C (stereo unspecified)
inactive: A549 > 100 µM | CAKI-1 > 100 µM | EKVX > 100 µM | HL-60 > 100 µM | HOP-92 > 100 µM | HT-29 > 100 µM | KM12 > 100 µM | MDA-MB-231 > 100 µM | MDA-N > 100 µM | MOLT-4 > 100 µM | Malme-3M > 100 µM | NCI-H23 > 100 µM | SF-539 > 100 µM | SK-MEL-28 > 100 µM | SK-MEL-2 > 100 µM | SN12C > 100 µM | SNB-75 > 100 µM | SR > 100 µM | T47D > 100 µM

N#CC(C(=O)C(N)=O)c1ccccc1Cl (stereo unspecified)
inactive: A549 > 100 µM | CAKI-1 > 100 µM | EKVX > 100 µM | HL-60 > 100 µM | HT-29 > 100 µM | KM-20L2 > 100 µM | KM12 > 100 µM | MOLT-4 > 100 µM | Malme-3M > 100 µM | NCI-H23 > 100 µM | SF-539 > 100 µM | SK-MEL-28 > 100 µM | SK-MEL-2 > 100 µM | SN12C > 100 µM | SNB-75 > 100 µM

CNc1nc2c(C)ccc3nc(N(C)C)[nH]c3c-2n1
inactive: A549 39.9 µM | CAKI-1 65.5 µM | EKVX 30.1 µM | HL-60 26.9 µM | HOP-92 > 100 µM | HT-29 30.7 µM | KM12 39.4 µM | MDA-MB-231 43.6 µM | MDA-N 33.8 µM | MOLT-4 32.7 µM | Malme-3M 31.1 µM | NCI-H23 32.9 µM | SF-539 24.8 µM | SK-MEL-28 52 µM | SK-MEL-2 93.1 µM | SN12C 36.1 µM | SNB-75 41.8 µM | SR 43.8 µM | T47D 46.6 µM

O=C(/C=C/c1ccccc1)CC1OC(=O)c2ccccc21 (stereo unspecified)
inactive: A549 > 100 µM | EKVX > 100 µM | HL-60 28.1 µM | HOP-92 48.8 µM | HT-29 > 100 µM | KM-20L2 > 100 µM | KM12 40.5 µM | MOLT-4 31 µM | Malme-3M > 100 µM | NCI-H23 47.1 µM | SF-539 36.1 µM | SK-MEL-28 > 100 µM | SK-MEL-2 46.3 µM | SNB-75 45.5 µM

COc1cc2oc3ccccc3c(=O)c2cc1CSc1ccccc1N
inactive: A549 23.4 µM | CAKI-1 35.9 µM | EKVX 24.1 µM | HL-60 3.83 µM | HOP-92 35.2 µM | HT-29 18.7 µM | KM12 4.62 µM | MDA-MB-231 27.7 µM | MDA-N 3.27 µM | MOLT-4 4.83 µM | Malme-3M 18.6 µM | NCI-H23 29.9 µM | SF-539 45.3 µM | SK-MEL-28 18.7 µM | SK-MEL-2 6.95 µM | SN12C 46.8 µM | SNB-75 30.8 µM | SR 5.2 µM | T47D 7.85 µM

O=c1oc2c(ccc3ccccc32)cc1C1=CSC2=NCCN12
inactive: A549 27.1 µM | CAKI-1 75.5 µM | EKVX 25.5 µM | HL-60 34.7 µM | HOP-92 24.4 µM | HT-29 45.3 µM | KM12 55.5 µM | MDA-MB-231 38.3 µM | MDA-N 51.6 µM | MOLT-4 34.2 µM | Malme-3M 58.6 µM | NCI-H23 53.8 µM | SF-539 69.7 µM | SK-MEL-28 35.2 µM | SK-MEL-2 > 100 µM | SN12C 42.4 µM | SNB-75 > 100 µM | SR 34.4 µM | T47D 30.5 µM
